Results published in patent US20110207726A1, “Inhibitors of Human Cathepsin L, Cathepsin B, and Cathepsin S” (The Trustees of the University of Pennsylvania, priority 2008, published 2011).
Like-named read-outs stand apart in the source and are kept apart here.

Key:
Type in all cases: biochemical
Human liver cathepsin B = target: T1, Human liver cathepsin B (Homo sapiens, UniProt P07858); experiment: Cathepsin B assay, IC50 determination
T1 construct: Human liver cathepsin B (Calbiochem 219362, 65 ng/mL); purchased Calbiochem 219362; host or cells: human liver
Procedure: (§1) Human spleen cathepsin S (Calbiochem 219344, 40 ng/mL) was assayed using 15 microM Z-Phe-Arg-AMC substrate. Human liver cathepsin B (Calbiochem 219362, 65 ng/mL) was assayed using 15 microM Z-Arg-Arg-AMC substrate (Bachem I-1135). All reactions were performed in 20 mM sodium acetate buffer containing 1 mM EDTA and 5 mM cysteine, pH 5.5.
(§2) Compounds were serially diluted in DMSO and transferred into a 96-well Corning 3686 assay microplate to give a 16-point two-fold serial dilution dose response ranging from 25 microM to 760 pM. Human liver cathepsin L (Calbiochem 219402) was activated by incubating with assay buffer for 30 min. Upon activation, cathepsin L (300 pM, 8.7 ng/mL) was incubated with 1 microM Z-Phe-Arg-AMC substrate (Sigma C9521) and test compound in […] of assay buffer for 1 hour at room temperature. Fluorescence of AMC released by enzyme-catalyzed hydrolysis of Z-Phe-Arg-AMC was read on a PerkinElmer Envision microplate reader (excitation 355 nm, emission 460 nm). Data were scaled using internal controls and fitted to a four-parameter logistic model (IDBS XLfit equation 205) to obtain IC50 values in triplicate.
(§3) Compound No. 1 was assayed for inhibition against papain and cathepsins B, G, K, S, and V. Papain from Carica papaya (Calbiochem 5125, 11 ng/mL), human cathepsin K (Calbiochem 342001, 35 ng/mL), human spleen cathepsin S (Calbiochem 219344, 40 ng/mL), and human cathepsin V (Calbiochem 219467, 39 ng/ml) were assayed using Z-Phe-Arg-AMC substrate at 20 μM, 20 μM, 15 μM, and 1 μM, respectively. Human liver cathepsin B (Calbiochem 219362, 65 ng/mL) was assayed using 15 μM Z-Arg-Arg-AMC substrate (Bachem I-1135). Human neutrophil cathepsin G (Calbiochem 219373, 4.2 μg/mL) was assayed using 15 μM Suc-Ala-Ala-Pro-Phe-AMC substrate (Sigma S9761). All reactions were performed in 20 mM sodium acetate buffer containing 5 mM cysteine and 1 mM EDTA, pH 5.5. Reaction progress was monitored using the Envision microplate reader. IC50 values were measured in triplicate.

Human spleen cathepsin S = target: T2, Human spleen cathepsin S (Homo sapiens, UniProt P25774); experiment: Cathepsin S assay, IC50 determination
T2 construct: Human spleen cathepsin S (Calbiochem 219344, 40 ng/mL); purchased Calbiochem 219344; host or cells: human spleen
T2 sequence (P25774 115-331): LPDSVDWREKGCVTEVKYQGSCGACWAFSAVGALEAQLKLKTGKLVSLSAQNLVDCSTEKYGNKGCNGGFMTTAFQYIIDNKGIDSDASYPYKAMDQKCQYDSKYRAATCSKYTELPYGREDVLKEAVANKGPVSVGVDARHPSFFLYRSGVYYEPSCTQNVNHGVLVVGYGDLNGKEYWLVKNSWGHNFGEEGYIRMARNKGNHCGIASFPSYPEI
Procedure: as §1, §2, §3

human liver cathepsin L = target: T3, human liver cathepsin L (Homo sapiens, UniProt P07711); experiment: Cathepsin L assay, IC50 determination
T3 construct: 8.7 ng/mL human liver cathepsin L (Calbiochem 219402); purchased Calbiochem 219402; host or cells: human liver
T3 sequence (P07711 114-288 limits assumed): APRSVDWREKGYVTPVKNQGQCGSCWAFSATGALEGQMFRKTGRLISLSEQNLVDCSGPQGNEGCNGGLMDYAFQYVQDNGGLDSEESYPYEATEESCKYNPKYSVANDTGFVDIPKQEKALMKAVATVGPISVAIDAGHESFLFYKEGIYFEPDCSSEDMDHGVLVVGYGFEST
T3 sequence (P07711 292-333 limits assumed): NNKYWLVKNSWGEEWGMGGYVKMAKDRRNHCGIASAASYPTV
Procedure: Assay buffer consisted of 20 mM sodium acetate, 1 mM ethylenediaminetetraacetic acid (EDTA) and 5 mM cysteine, pH 5.5. Cathepsin L was incubated in assay buffer for 30 minutes prior to dispensing into wells to allow for efficient reduction of the active site cysteine required for full enzymatic activity.
Upon activation, cathepsin L (300 pM, 8.7 ng/mL) was incubated with 1 microM Z-Phe-Arg-AMC substrate (Sigma C9521) and test compound in […] of assay buffer for 1 hour at room temperature.
All reactions were performed in 20 mM sodium acetate buffer containing 5 mM cysteine and 1 mM EDTA, pH 5.5. Reaction progress was monitored using the Envision microplate reader. IC50 values were measured in triplicate.

[1] = Table 17, n = 3, C, S or O at the sulfur position, read-out: Cathepsin L inhibitory activity IC50

Row | SMILES | IC50 (Human liver cathepsin B; Table 1, read-out: IC50 Cat B) [µM] | IC50 (Human spleen cathepsin S; Table 1, read-out: IC50 Cat S) [µM] | IC50 (human liver cathepsin L; Table 1, read-out: IC50 Cat L) [µM] | also measured
1 | CC(C)(C)OC(=O)N1CCC[C@H]1C(=O)NNC(=O)SCC(=O)N1CCCc2ccccc21 [Compound No. 33] | > 25 | > 25 | > 25 | –
2 | CC(C)(C)OC(=O)N[C@@H](COCc1ccccc1)C(=O)NNC(=O)SCC(=O)NCCc1ccc(Br)cc1 [Compound No. 52] | > 25 | 0.91 | 0.58 | –
3 | CC(C)(C)OC(=O)N[C@@H](CCC(=O)NC1c2ccccc2Oc2ccccc21)C(=O)NNC(=O)SCC(=O)N1CCCc2ccccc21 [Compound No. 60] | > 25 | > 25 | > 25 | –
4 | CCc1ccccc1NC(=O)CSC(=O)NNC(=O)C[C@@H](COCc1ccccc1)NC(=O)OC(C)(C)C [Compound No. 84] | > 25 | 15.2 | > 25 | –
5 | CC(C)(C)OC(=O)N[C@@H](Cc1c[nH]c2ccccc12)C(=O)NNC(=O)SCC(=O)N1CCc2ccccc2C1 [Compound No. 12] | 3.25 | 0.53 | 0.019 | –
6 | CSCC[C@H](NC(=O)OC(C)(C)C)C(=O)NNC(=O)SCC(=O)N1CCc2ccccc2C1 [Compound No. 19] | 2.31 | 0.41 | 0.52 | –
7 | CCc1ccccc1NCCSC(=O)NNC(=O)[C@H](Cc1ccccc1)NC(=O)OC(C)(C)C [Compound No. 35] | > 25 | > 25 | > 25 | –
8 | Cc1ccc(S(=O)(=O)NNC(=O)[C@H](Cc2ccc(OC(=O)OC(C)(C)C)cc2)NC(=O)OC(C)(C)C)cc1 [Compound No. 122] | – | – | – | IC50 (Human liver cathepsin B; Tables 2-11, read-out: Cat B): ≥ 25 µM; IC50 (Human spleen cathepsin S; Tables 2-11, read-out: Cat S): ≥ 25 µM; IC50 (human liver cathepsin L; Tables 2-11, read-out: Cat L): ≥ 25 µM
9 | CC(C)(C)OC(=O)N[C@H](COCc1ccccc1)C(=O)NNC(=O)SCC(=O)N1CCCc2ccccc21 [Compound No. 49] | > 25 | 5.89 | 17.9 | –
10 | CCc1ccccc1NC(=O)CSC(=O)NNC(=O)[C@H](Cc1ccc(OCc2ccccc2)cc1)NC(=O)OC(C)(C)C [Compound No. 36] | 5.08 | 2.83 | 0.83 | –
11 | CCc1ccccc1NC(=O)CSC(=O)NNC(=O)[C@H](C)NC(=O)OC(C)(C)C [Compound No. 25] | > 25 | > 25 | ≥ 25 | –
12 | CCc1ccccc1NC(=O)CSc1nnc([C@@H](N)Cc2c[nH]c3ccccc23)o1 [Compound (ii)] | – | – | – | cathepsin L inhibitory activity (in words) (human liver cathepsin L): completely devoid of activity
13 | CC(C)(C)OC(=O)NC(Cc1c[nH]c2ccccc12)C(=O)NNC(=O)SCC(=O)N1CCCc2ccccc21 (stereo not drawn) [Tetrahydroquinoline S] | – | – | – | IC50 (human liver cathepsin L; [1]): 0.041 ± 0.002 µM
14 | CC(C)(C)OC(=O)N[C@@H](Cc1ccc(OC(=O)OC(C)(C)C)cc1)C(=O)NNC(=O)C(=O)N1CCc2ccccc2C1 [Compound No. 127] | – | – | – | IC50 (Human liver cathepsin B; Tables 2-11, read-out: Cat B): ≥ 25 µM; IC50 (Human spleen cathepsin S; Tables 2-11, read-out: Cat S): ≥ 25 µM; IC50 (human liver cathepsin L; Tables 2-11, read-out: Cat L): ≥ 25 µM
15 | CCc1ccccc1NC(=O)CSC(=O)NNC(=O)[C@@H](C)CO[Si](C)(C)C(C)(C)C [Compound No. 71] | > 25 | > 25 | > 25 | –
16 | CC(C)(C)OC(=O)N[C@@H](Cc1c[nH]c2ccccc12)C(=O)N/N=C/c1ccc(Cl)cc1 [Compound No. 124] | – | – | – | IC50 (Human liver cathepsin B; Tables 2-11, read-out: Cat B): ≥ 25 µM; IC50 (Human spleen cathepsin S; Tables 2-11, read-out: Cat S): ≥ 25 µM; IC50 (human liver cathepsin L; Tables 2-11, read-out: Cat L): ≥ 25 µM
17 | CCc1ccccc1NC(=O)COC(=O)NNC(=O)C(Cc1c[nH]c2ccccc12)NC(=O)OC(C)(C)C (stereo not drawn) [2-ethylanilide O] | – | – | – | IC50 (human liver cathepsin L; [1]): 0.028 ± 0.004 µM
18 | CC(C)(C)OC(=O)N[C@@H](Cc1ncc[nH]1)C(=O)NNC(=O)SCC(=O)N1CCCc2ccccc21 [Compound No. 66] | 11.6 | > 25 | > 25 | –
19 | CC(C)(C)OC(=O)N[C@@H](Cc1ccc(OCc2ccccc2)cc1)C(=O)NNC(=O)SCC(=O)N1CCOc2ccccc21 [Compound No. 41] | 3.03 | 3.98 | 1.56 | –
